# Starred links: 1 amine or outer side, 2 acyl side, 3 side chain; linkers in the order of their positions; H or OH if unused. Non-standard residues stand in square brackets, D forms with d. Residues, ends and D or L forms follow the SMILES beside them. ξ: configuration not given here. *: point of attachment. ξ(3-Amino-2-oxopentanoyl) = CCC(N[*:1])C(=O)C(=O)[*:2]; Acetyl(3-pyridyl) = O=C(Cc1cccnc1)*; NH(4-picolyl) = c1cc(CN*)ccn1; Hyp = O=C(O)[CH]1C[CH](O)CN1; NHPhenethyl = c1ccc(CCN*)cc1; Nicotinoyl = O=C(c1cccnc1)*; X44 = O=C(c1ccc2cnccc2n1)*; Morpholide = C1CN(*)CCO1; Abu = CC[CH](N)C(=O)O; X8 = O=C(CCN1CCCCC1)*; NHBn = c1ccc(CN*)cc1; Glycolyl = O=C(CO)*; X13 = COc1ccccc1CN*; X16 = C1COC(CN*)C1; Bn = c1ccc(C*)cc1; X37 = COCC(C)N*; NHPr = CCCN*
# Molecular target: T1, HCV NS3 protease (Hepatitis C virus genotype 1a, UniProt P27958)
# T1 construct: more particularly HCV NS3 proteases
# T1 sequence (P27958 1027-1208): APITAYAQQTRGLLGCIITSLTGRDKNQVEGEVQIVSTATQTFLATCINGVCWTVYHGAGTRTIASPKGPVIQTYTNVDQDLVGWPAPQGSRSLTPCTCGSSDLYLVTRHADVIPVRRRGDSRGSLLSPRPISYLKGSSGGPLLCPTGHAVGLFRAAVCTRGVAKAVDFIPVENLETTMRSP
# Experiment: Enzyme inhibition of HCV NS3 serine protease (cleavage of peptide substrate / EDVV AbuC-p-nitroanilide, with or without NS4A)
# Type: biochemical
# Details: not given
# Protocol: Cleavage reactions were quenched by the addition of an equal volume of a mixture of 10% TFA:acetonitrile (1:1) and activity was assessed on a reversed phase HPLC column (Rainin C18 Microsorb-MV, […], 4.6×250 mm; 0-50% acetonitrile, 0.1% TFA@ 3.33% min) using a Hewlett Packard 1050 instrument with auto-injection and diode array detection at 210 nm and 280 nm (where appropriate). Peptide elution fragments were collected and identified by mass spectrometry and N-terminal sequence analysis. Fragment identity and concentration was further verified by authentic, synthesized products. Initial rates of cleavage were determined at <20% substrate conversion and catalytic parameters were determined assuming Michaelis-Menten kinetics using the MultiFit program (Day Computing, Cambridge, Mass.).
# Spectrophotometric assays were run in a 96-well microtiter plate at 30 C, using a SpectraMax 250 reader (Molecular Devices, Sunnyvale, Calif.) with kinetic capability. Cleavage of EDVV AbuC-p-nitroanilide (5A-pNA) substrate was performed with or without […] in the same buffer used for HPLC assays at 30 C, and pNA release was monitored at 405 nm. The extinction-coefficient of p-nitroaniline is independent of pH at values of 5.5. and above [Tuppy, H., et al., Hoppe-Seyler's Z. Physiol. Chem., 329, pp. 278-288 (1962)]; Raybuck and Luong, unpublished observations).
# Kinetic constants for the rapid equilibrium ordered bisubstrate reaction were determined from rate vs [4A], [EDVV AbuC-pNA] data by non-linear least squares fitting to equation 1 [Morrison, J. F. Biochim. Biophys. Acta, 185, pp. 269-286 (1969)] as described in the text. Kii and Kis values for peptidyl inhibitors were determined from rate vs [inhibitor], [substrate] data and fitting to the equation for mixed inhibition: rate=Vmax[S]/{Km(1+[I]/Kis)+[S](1+[I]/Kii)} The commercial program KinetAsyst (StateCollege, Pa.) was used for both procedures. Ki values were calculated from rate vs [inhibitor] plots by a nonlinear least squares fit of the data to the equation of Morrison for tight binding competitive inhibition [Morrison, J. F. Biochim. Biophys. Acta, 185, pp. 269-286 (1969)]. The KineTic program (BioKin Ltd) was used for this procedure.
# Ki values are expressed in μM. Category “A” indicates <1 μM inhibition; category “B” indicates 1-100 μM inhibition; category “C” indicates >100 μM.
row,Compound,Ki [nM]
1,CCC(NC(=O)C1CC(OCc2ccc(Cl)c(Cl)c2)CN1C(=O)C(NC(=O)C(NC(=O)c1cnccn1)C(C)C)C(C)C)P(=O)(Oc1ccccc1)Oc1ccccc1 (centres unmarked) [Compound 71],< 1000
2,CCC(NC(=O)C1CC(OCc2ccc3ccccc3c2)CN1C(=O)C(NC(=O)C(NC(=O)c1cnccn1)C(C)C)C(C)C)P(=O)(Oc1ccccc1)Oc1ccccc1 (centres unmarked) [Compound 72],1000 to 100000
3,CCC(NC(=O)C1CC(OCc2ccccc2)CN1C(=O)C(NC(=O)C(NC(=O)c1cnccn1)C(C)C)C(C)C)P(=O)(Oc1ccccc1)Oc1ccccc1 (centres unmarked) [Compound 73],1000 to 100000
4,CCC(NC(=O)C(CC(C)C)NC(=O)C(NC(=O)C(NC(=O)c1cnccn1)C(C)C)C(C)C)C(=O)C(=O)N[C@H](CC)c1ccccc1 (some centres unmarked) [Compound 120],1000 to 100000

# Same assay, conditions: Enzyme inhibition data; Ki from rate vs [inhibitor] plots, Morrison tight binding competitive inhibition fit; 30 C, pH 7.8; read-out: Ki
row,Compound,Ki [nM]
1,CCC(C=O)NC(=O)C1CC(NCc2ccccc2)CN1C(=O)C(NC(=O)C(NC(=O)c1cnccn1)C(C)C)C(C)C (centres unmarked) [Compound 67],> 100000
2,CCC(NC(=O)C1CC(OCc2ccccc2)CN1C(=O)C(NC(=O)C(NC(=O)c1cnccn1)C(C)C)C(C)C)C(=O)C(F)(F)C(F)(F)F (centres unmarked) [Compound 75],1000 to 100000
3,CCOC(=O)C(F)(F)C(=O)C(CC)NC(=O)C1CC(OCc2ccccc2)CN1C(=O)C(NC(=O)C(NC(=O)c1cnccn1)C(C)C)C(C)C (centres unmarked) [Compound 76],> 100000
4,CCOP(=O)(OCC)C(CC)NC(=O)C1CC(OCc2ccccc2)CN1C(=O)C(NC(=O)C(NC(=O)c1cnccn1)C(C)C)C(C)C (centres unmarked) [Compound 77],> 100000
5,CCC(NC(=O)C1CC(OCc2ccccc2)CN1C(=O)C(NC(=O)C(NC(=O)c1cnccn1)C(C)C)C(C)C)C(=O)C(=O)CCc1ccccc1 (centres unmarked) [Compound 78],1000 to 100000
6,CCC(NC(=O)C1CC(OCc2ccccc2)CN1C(=O)C(NC(=O)C(NC(=O)c1cnccn1)C(C)C)C(C)C)C(=O)C(=O)NCCc1ccccc1 (centres unmarked) [Compound 79],1000 to 100000
7,CCC(C=O)NC(=O)C1CC(OCc2ccccc2)CN1C(=O)C(NC(=O)C(NC(C)=O)C(C)C)C(C)C (centres unmarked) [Compound 81] (Ac-VV[Hyp](Bn)[Abu]-aldehyde; configuration not given here),1000 to 100000
8,CCC(C=O)NC(=O)C1CC(OCc2ccccc2)CN1C(=O)C(NC(=O)C(NC(=O)CO)C(C)C)C(C)C (centres unmarked) [Compound 82] (Glycolyl-VV[Hyp](Bn)[Abu]-aldehyde; configuration not given here),1000 to 100000
9,CCC(C=O)NC(=O)C(CC(C)C)NC(=O)C(NC(=O)C(NC(=O)c1ccc2cnccc2n1)C(C)C)C(C)C (centres unmarked) [Compound 89] (X44-VVL[Abu]-aldehyde; configuration not given here),1000 to 100000
10,CCC(C=O)NC(=O)C(CC(C)C)NC(=O)C(NC(=O)C(NC(=O)c1cccnc1)C(C)C)C(C)C (centres unmarked) [Compound 94] (Nicotinoyl-VVL[Abu]-aldehyde; configuration not given here),1000 to 100000
11,CCC(C=O)NC(=O)C(CC(C)C)NC(=O)C(NC(=O)C(NC(=O)Cc1cccnc1)C(C)C)C(C)C (centres unmarked) [Compound 95] ({Acetyl(3-pyridyl)}-VVL[Abu]-aldehyde; configuration not given here),1000 to 100000
12,CCC(C=O)NC(=O)C(CC(C)C)NC(=O)C(NC(=O)C(NC(=O)CCN1CCCCC1)C(C)C)C(C)C (centres unmarked) [Compound 97] (X8-VVL[Abu]-aldehyde; configuration not given here),1000 to 100000
13,CCC(NC(=O)C(CC(C)C)NC(=O)C(NC(=O)C(NC(=O)C(CC(=O)O)NC(=O)C(CCC(=O)O)NC(C)=O)C(C)C)C(C)C)C(=O)C(=O)O (centres unmarked) [Compound 101] (Ac-EDVVL-{ξ(3-Amino-2-oxopentanoyl)}; configuration not given here),< 1000
14,CCC(NC(=O)C(CC(C)C)NC(=O)C(NC(=O)C(NC(=O)C(CC(=O)O)NC(=O)C(CCC(=O)O)NC(C)=O)C(C)C)C(C)C)C(=O)C(=O)NCc1ccccc1 (centres unmarked) [Compound 102] (Ac-EDVVL[ξ(3-Amino-2-oxopentanoyl)]-NHBn; configuration not given here),< 1000
15,CCC(NC(=O)C(CC(C)C)NC(=O)C(NC(=O)C(NC(=O)C(CC(=O)O)NC(=O)C(CCC(=O)O)NC(C)=O)C(C)C)C(C)C)C(=O)C(=O)NCc1ccccc1OC (centres unmarked) [Compound 103] (Ac-EDVVL[ξ(3-Amino-2-oxopentanoyl)]-X13; configuration not given here),< 1000
16,CCC(NC(=O)C(CC(C)C)NC(=O)C(NC(=O)C(NC(=O)C(CC(=O)O)NC(=O)C(CCC(=O)O)NC(C)=O)C(C)C)C(C)C)C(=O)C(=O)NCCc1ccccc1 (centres unmarked) [Compound 104] (Ac-EDVVL[ξ(3-Amino-2-oxopentanoyl)]-NHPhenethyl; configuration not given here),< 1000
17,CCCNC(=O)C(=O)C(CC)NC(=O)C(CC(C)C)NC(=O)C(NC(=O)C(NC(=O)C(CC(=O)O)NC(=O)C(CCC(=O)O)NC(C)=O)C(C)C)C(C)C (centres unmarked) [Compound 105] (Ac-EDVVL[ξ(3-Amino-2-oxopentanoyl)]-NHPr; configuration not given here),< 1000
18,CCC(NC(=O)C(CC(C)C)NC(=O)C(NC(=O)C(NC(=O)C(CC(=O)O)NC(=O)C(CCC(=O)O)NC(C)=O)C(C)C)C(C)C)C(=O)C(=O)NC(C)COC (centres unmarked) [Compound 106] (Ac-EDVVL[ξ(3-Amino-2-oxopentanoyl)]-X37; configuration not given here),< 1000
19,CCC(NC(=O)C(CC(C)C)NC(=O)C(NC(=O)C(NC(=O)C(CC(=O)O)NC(=O)C(CCC(=O)O)NC(C)=O)C(C)C)C(C)C)C(=O)C(=O)NCc1ccncc1 (centres unmarked) [Compound 107] (Ac-EDVVL[ξ(3-Amino-2-oxopentanoyl)]-{NH(4-picolyl)}; configuration not given here),< 1000
20,CCC(NC(=O)C(CC(C)C)NC(=O)C(NC(=O)C(NC(=O)C(CC(=O)O)NC(=O)C(CCC(=O)O)NC(C)=O)C(C)C)C(C)C)C(=O)C(=O)NCC1CCCO1 (centres unmarked) [Compound 108] (Ac-EDVVL[ξ(3-Amino-2-oxopentanoyl)]-X16; configuration not given here),< 1000
21,CCC(NC(=O)C(CC(C)C)NC(=O)C(NC(=O)C(NC(=O)C(CC(=O)O)NC(=O)C(CCC(=O)O)NC(C)=O)C(C)C)C(C)C)C(=O)C(=O)N1CCOCC1 (centres unmarked) [Compound 109] (Ac-EDVVL[ξ(3-Amino-2-oxopentanoyl)]-Morpholide; configuration not given here),1000 to 100000
22,CCC(NC(=O)C(CC(C)C)NC(=O)C(NC(=O)C(NC(=O)c1cnccn1)C(C)C)C(C)C)C(=O)C(=O)NCc1ccccc1 (centres unmarked) [Compound 112],1000 to 100000
23,CCC(NC(=O)C(CC(C)C)NC(=O)C(NC(=O)C(NC(=O)c1cnccn1)C(C)C)C(C)C)C(=O)C(=O)NCCc1ccc(OCc2ccccc2)c(OCc2ccccc2)c1 (centres unmarked) [Compound 113],1000 to 100000
24,CCC(NC(=O)C(CC(C)C)NC(=O)C(NC(=O)C(NC(=O)c1cnccn1)C(C)C)C(C)C)C(=O)C(=O)NCc1ccccc1OC (centres unmarked) [Compound 114],> 100000
25,CCC(NC(=O)C(CC(C)C)NC(=O)C(NC(=O)C(NC(=O)c1cnccn1)C(C)C)C(C)C)C(=O)C(=O)NCCc1ccccc1 (centres unmarked) [Compound 115],1000 to 100000
26,CCC(NC(=O)C(CC(C)C)NC(=O)C(NC(=O)C(NC(=O)c1cnccn1)C(C)C)C(C)C)C(=O)C(=O)N[C@H](C)c1ccccc1 (some centres unmarked) [Compound 116],1000 to 100000
27,CCC(NC(=O)C(CC(C)C)NC(=O)C(NC(=O)C(NC(=O)c1cnccn1)C(C)C)C(C)C)C(=O)C(=O)N[C@@H](C)c1ccccc1 (some centres unmarked) [Compound 117],1000 to 100000
28,CCC(NC(=O)C(CC(C)C)NC(=O)C(NC(=O)C(NC(=O)c1cnccn1)C(C)C)C(C)C)C(=O)C(=O)Nc1ccccc1 (centres unmarked) [Compound 119],> 100000
